“Also recorded” adds a separate entry of the source.
Key:
[1] = tested on: CYP3A4; conditions: human recombinant CYP, background data in introduction, no reference given, cited from earlier work
[2] = Part 1 absolute bioavailability: plasma PK after oral 600 mg ziritaxestat and 15-minute IV infusion of 100 μg 14C-ziritaxestat microtracer; format: in vivo, human; conditions: for F AUCt (absolute bioavailability) / F AUC∞ (absolute bioavailability): oral 600 mg vs IV 100 μg 14C-ziritaxestat; for F AUCt (absolute bioavailability): dose-normalized AUCt; for F AUC∞ (absolute bioavailability): dose-normalized AUC∞
Excerpt: Part 1 of the study was designed to assess the absolute bioavailability of ziritaxestat. An IV microtracer, a well‐established technique, was used.[21], [22] This design involved a 15‐minute infusion of a subtherapeutic 100‐μg IV ziritaxestat dose labeled with a microtracer (≤1000 nCi) of ^14C radioactivity, dosed at an anticipated time to reach maximum plasma concentration (tmax) of a preceding unlabeled therapeutic (600‐mg) oral dose (administered as three 200‐mg film‐coated tablets). The low‐dose IV formulation means that nonclinical local tolerability and IV toxicology studies can generally be avoided,[21], [22] which can be preferable when developing a single, fit‐for‐purpose IV formulation. Administering the IV microdose at tmax of the unlabeled therapeutic (600‐mg) oral dose of ziritaxestat ensured that the PK of the microdose remained representative of the therapeutic dose.
Given the low (microgram) levels of ziritaxestat expected in plasma, liquid chromatography–accelerated mass spectrometry (LC‐AMS) was used to quantify levels of ^14C‐ziritaxestat, whereas accelerated mass spectrometry (AMS) was used to quantify total radioactivity following the IV dose, achieving a lower limit of quantification (LLOQ) of 0.110 ng eq/mL and 0.0069 ng eq/mL, respectively. Concentrations of unlabeled parent in plasma were measured using liquid chromatography with tandem mass spectrometry (LC‐MS/MS), with an LLOQ of 1.00 ng/mL.
Subjects were admitted to the clinic on day –1 (the evening before dosing) and remained onsite until 72 hours after dosing. On the morning of day 1, 30 minutes after the start of a standard breakfast, subjects received a single oral dose of 600‐mg ziritaxestat, followed 3.25 hours later by a 15‐minute IV infusion of 100 μg of ^14C‐ziritaxestat. Plasma samples for ziritaxestat concentrations were collected before dosing and at 0.25, 0.5, 1, 1.5, 2, 3, 3.25, 4, 5, 6, 8, 10, 12, 24, 48, and 72 hours after the oral dose. In addition, plasma samples for ^14C‐ziritaxestat, total radioactivity, and metabolite profiling were collected at 3.25, 3.33, 3.5, 3.75, 4, 4.25, 4.75, 5.25, 6, 7, 8, 10, 12, 24, 48, and 72 hours after the oral dose.
(§1) Concentrations of ziritaxestat in human lithium heparin plasma samples were determined for both study parts by using an LC‐MS/MS method validated according to the requirements of the US Food and Drug Administration's Guidance for Industry and the European Medicines Agency's guidance on bioanalytical methods. The method involved isolating ziritaxestat and ziritaxestat‐d8 (internal standard) from 20 μL of human lithium heparin plasma by solid‐phase extraction performed on a CUBCX1 100‐mg 1‐mL cartridge (Screening Devices, Amersfoort, Netherlands). The extract sample was then evaporated to dryness under a stream of nitrogen at +50°C. The residue was reconstituted with 0.3 mL of a mixture of 25% acetonitrile in purified water containing 0.01% of ammonium hydroxide. Ten microliters of the clear supernatant were injected into the high‐performance liquid chromatography system (Shimadzu, Kyoto, Japan), operating in isocratic elution mode. Chromatographic separation was performed on an XBridge C18 column (100 × 4.6 mm, 3.5 μm; Waters Corp., Milford, Massachusetts). The aqueous mobile phase consisted of a mixture of 46.75% acetonitrile in purified water containing 0.02% of ammonium hydroxide. An API 4000 LC‐MS/MS system (SCIEX, Toronto, Canada) equipped with a TurboIonSpray probe operating in multiple‐reaction monitoring mode in positive mode was used for quantification. The precursor‐to‐product ion pairs at the mass‐to‐charge ratio were 589 to 256 and 597 to 264 for ziritaxestat and its internal standard, respectively.
Total radioactivity plasma concentrations for part 1 were determined using AMS analysis on a 1‐MV multielement accelerated mass spectrometer, model 4110 Bo (High Voltage Engineering Europa, Amersfoort, the Netherlands). […]

[3] = Estimation of oral bioavailability fractions (fa, fg, fh); format: in vivo, human
Excerpt: Contribution to clearance from nonhepatic routes was assumed to be minimal. fg was estimated assuming Fg=F/Fa/Fh .

[4] = Part 2: plasma and whole blood PK after a single oral 600-mg dose of 14C-ziritaxestat; format: in vivo, human; conditions: ziritaxestat in plasma, single oral 600 mg 14C-ziritaxestat
Excerpt: Part 2 of the study assessed the mass balance, routes of elimination, and metabolite profile of ziritaxestat following a single, oral 600‐mg dose (administered as two 300‐mg active pharmaceutical ingredients‐in‐capsule) of ^14C‐ziritaxestat.
Subjects were admitted on the evening before dosing (day –1 of part 2), allowing a minimum 7‐day washout in oral drug administration between parts 1 and 2. On the morning of day 1, subjects received a single oral dose of ^14C‐ziritaxestat, equivalent to 600 mg of ziritaxestat. […] Subjects stayed in the clinical study center no longer than day 10 (216 hours after dosing).
(§2) Whole blood and plasma samples for total radioactivity and plasma sample concentrations of ziritaxestat were collected before dosing and at 0, 0.25, 0.5, 1, 1.5, 2, 3, 4, 6, 8, 10, 24, 48, 72, 96, 120, 144, 168, 192, and 216 hours after dosing. Plasma samples for metabolite identification and quantification were collected before dosing and at 1, 3, 6, 24, 48, 72, 96, and 144 hours after dosing. Urine and fecal samples for total radioactivity, metabolite identification, and quantification were collected before dosing through to 216 hours after dosing. Structural identification was attempted on any radioactive component that represented ≥10% of the circulating radioactivity in plasma or that accounted for >10% of the dose in ≥1 fecal and urine samples.
Total radioactivity was measured via liquid scintillation counting, achieving an LLOQ of 306 ng eq/mL (plasma), 216 ng eq/mL (whole blood), 17 ng eq/g (urine), and 161 ng eq/g (feces). Concentrations of parent in plasma were measured using LC‐MS/MS, with an LLOQ of 1.00 ng/mL.
as §1
PK analysis was performed using standard noncompartmental methods (Phoenix WinNonlin version 9.4; Pharsight, Certara, Princeton, New Jersey). […] In part 2, the following mass balance parameters were determined: cumulative amount of total radioactivity excreted in urine up to t, cumulative amount of total radioactivity excreted in feces up to t, amount of total radioactivity excreted in urine as a percentage of administered radioactivity, and amount of total radioactivity excreted in feces as a percentage of administered radioactivity. AUC was calculated by the linear up‐logarithmic down‐trapezoid rule, CL was calculated as dose/AUC, Vd(area) was calculated as CL/λz, and F was calculated as dose‐normalized ziritaxestat oral AUC/^14C‐ziritaxestat IV AUC.

[5] = Metabolite profiling and identification in plasma, urine and feces; format: in vivo, human; conditions: for Mean Feces Region of Interest: components of one region share its value
Method: as §2

[6] = tested on: CYP1A2; conditions: 0.1 to 30 μM incubated with human hepatocytes; background data in introduction, no reference given; cited from earlier work
[7] = tested on: CYP3A4; conditions: 0.1 to 30 μM incubated with human hepatocytes; background data in introduction, no reference given; cited from earlier work
[8] = tested on: CYP2C8; conditions: background data in introduction, no reference given, cited from earlier work
[9] = tested on: CYP3A4/5; conditions: human liver microsomes and probe substrates; weak inhibition; background data in introduction, no reference given; read-out: half maximal inhibitory concentration; cited from earlier work
[10] = Safety assessments (AEs, laboratory tests, vital signs, ECG); format: in vivo, human; conditions: parts 1 and 2
Method: Safety assessments included adverse events (AEs), clinical laboratory tests (clinical chemistry, hematology, urinalysis), vital signs, 12‐lead electrocardiograms (ECGs), and physical examinations. AEs were recorded from the first dose until study discharge, and at the follow‐up call. Any adverse experiences recorded between the time of informed consent and the first dose were recorded with the medical history. AEs and medications were coded using the Medical Dictionary for Regulatory Activities version 21.1.

[11] = human, ziritaxestat in plasma, oral 600 mg, n = 6, mean (SD)
[12] = mean (SD), listed as ziritaxestat
[13] = feces, single oral 600 mg 14C-ziritaxestat

CCc1nc2c(C)cc(N3CCN(CC(=O)N4CC(O)C4)CC3)cn2c1N(C)c1nc(-c2ccc(F)cc2)c(C#N)s1 [Ziritaxestat]
Enzyme primarily responsible for metabolism [1]: primarily metabolized by CYP3A4 | Contribution to metabolism from other phase 1 enzymes (maximum) ([1]; enzymes other than CYP3A4): ≤ 2.1% | AUC(0-inf) [2, 11]: 40000 ng·h/mL | AUC(0-t) [2, 11]: 40000 ng·h/mL | Cmax [2, 11]: 8400 ng/mL | half-life [2, 11]: 7 h | Tmax ([2]; human, ziritaxestat in plasma, oral 600 mg, n = 6, median (range)): 3.25 h | F AUCt (absolute bioavailability) ([2]; mean (SD)): 54.4 (5.2) % | F AUCt (absolute bioavailability) [2, 12]: 54% | F AUC∞ (absolute bioavailability) ([2]; mean (SD)): 51.1 (4.8) % | F AUC∞ (absolute bioavailability) [2, 12]: 51% | CL/F ([2]; ziritaxestat in plasma, oral 600 mg, n = 6, mean (SD)): 16.3 (4.6) L/h | fg (fraction of drug surviving gut metabolism) ([3]; Fg = F/Fa/Fh): 69% | fh (fraction of drug surviving hepatic elimination) ([3]; Fh = 1 - Eh, Eh = ClIV/Qh, Qh 1450 mL/min): 91% | Hepatic extraction ratio (first-pass loss) ([3]; human, in vivo): 9% | frem (fraction of drug remaining to be eliminated) ([3]; human, in vivo): 14% | AUC(0-inf) ([4]; human, n = 5, mean (SD)): 50500 ng·h/mL | half-life ([4]; human, n = 5, mean (SD)): 10.6 h | AUC(0-t) ([4]; human, n = 6, mean (SD)): 49100 ng·h/mL | Cmax ([4]; human, n = 6, mean (SD)): 10700 ng/mL | AUC ([4]; human, n = 6, mean (SD), read-out: AUC24): 47900 ng·h/mL | Tmax ([4]; human, n = 6, median (range)): 1.75 h | CL/F ([4]; n = 5, mean (SD)): 13.2 (4.6) [n = 5] ^c L/h | Parent as share of total radioactivity (drug-related material) recovered in feces ([5]; feces, oral 600 mg 14C-ziritaxestat): 17.6% | Mean Feces Region of Interest [5, 13]: 17.6% | Share of circulating radioactivity in plasma ([5]; plasma, metabolite profile / mass spectrometry analysis, oral 600 mg 14C-ziritaxestat): 76% | Mean Plasma Region of Interest ([5]; plasma, single oral 600 mg 14C-ziritaxestat): 76.2 | CYP1A2 messenger RNA expression (induction potential) [6]: Increases in messenger RNA expression | CYP3A4 messenger RNA expression (induction potential) [7]: Increases in messenger RNA expression | half maximal inhibitory concentration fold shift ([8]; CYP2C8-mediated metabolism, preincubation with ziritaxestat in the absence and presence of NADP, time-dependent inhibition): 2.49 | IC50 ([8]; human liver microsomes and probe substrates, weak inhibition, read-out: half maximal inhibitory concentration): 2.1 µM | IC50 [9]: 3.7 µM | Effects on laboratory, vital signs, or ECG parameters [10]: no clinically meaningful effects | Intensity of TEAEs [10]: mild | Relation of TEAEs to treatment as assessed by the investigator [10]: not considered to be related to the study drug; also recorded: not treatment related | Serious AEs or AEs leading to discontinuation or interruption of dosing ([10]; healthy male subjects): no serious AEs or AEs leading to discontinuation or interruption of dosing | Number of treatment-emergent AEs (TEAEs) ([10]; reported in 5 subjects): 7

CCc1nc2c(C)cc(N3CCN(CC(=O)NCC(=O)O)CC3)cn2c1N(C)c1nc(-c2ccc(F)cc2)c(C#N)s1 [M590]
Mean Feces Region of Interest [5, 13]: 25.3%

CCc1nc2c(C)cc(N3CCN(CC(=O)O)CC3)cn2c1N(C)c1nc(-c2ccc(F)cc2)c(C#N)s1 [M533]
Mean Feces Region of Interest [5, 13]: 25.3%

Reference: publication PMC9292235, “Pharmacokinetics and Metabolism of Ziritaxestat (GLPG1690) in Healthy Male Volunteers Following Intravenous and Oral Administration” (Clinical Pharmacology in Drug Development, 2021)
